This passage reports Ki results from US10501461B2, “Tyrosine amide derivatives as Rho-kinase inhibitors” (CHIESI FARMACEUTICI S.P.A., priority 2017, dated 2019).

As a reminder, the pKi is the Ki on a negative log10 scale, so that one unit is a factor of ten. The low end stands for a high Ki, the high end for a low Ki.

One test deals with Rho kinase 1 (ROCK-I) (Homo sapiens, UniProt Q13464). Nature of the test: In vitro Rho kinase inhibitory activity assay (ADP-Glo), Rho kinase 1. It is filed as biochemical. Particulars: 10 μM ATP, 25° C., expressed as range of activity. The method, boiled down:
(§1)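 ADP-Glo luminescence read-out. Enzyme (ROCK1 or ROCK2) + compound 30 min, then 10 μM ATP final, 1 h, 25 °C; 2.5 μM MBP peptide substrate, Tris pH7.5/MgCl2/BSA/DTT buffer, 1% DMSO. IC50 from variable-slope fit (0–100% fixed); Ki via Cheng-Prusoff.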

A further test has as its target Rho kinase 2 (ROCK-II) (Homo sapiens, UniProt O75116). Put plainly: In vitro Rho kinase inhibitory activity assay (ADP-Glo), Rho kinase 2. The format is biochemical. As to conditions: 10 μM ATP, 25° C., expressed as range of activity. The method, boiled down: as §1
For orientation: ADP-Glo turns the ADP formed in a reaction into a luminescent signal.

Molecules are shown by their SMILES. pKi: −log10 of the molar value.

Rho kinase 2 (ROCK-II), sequence (O75116 whole entry): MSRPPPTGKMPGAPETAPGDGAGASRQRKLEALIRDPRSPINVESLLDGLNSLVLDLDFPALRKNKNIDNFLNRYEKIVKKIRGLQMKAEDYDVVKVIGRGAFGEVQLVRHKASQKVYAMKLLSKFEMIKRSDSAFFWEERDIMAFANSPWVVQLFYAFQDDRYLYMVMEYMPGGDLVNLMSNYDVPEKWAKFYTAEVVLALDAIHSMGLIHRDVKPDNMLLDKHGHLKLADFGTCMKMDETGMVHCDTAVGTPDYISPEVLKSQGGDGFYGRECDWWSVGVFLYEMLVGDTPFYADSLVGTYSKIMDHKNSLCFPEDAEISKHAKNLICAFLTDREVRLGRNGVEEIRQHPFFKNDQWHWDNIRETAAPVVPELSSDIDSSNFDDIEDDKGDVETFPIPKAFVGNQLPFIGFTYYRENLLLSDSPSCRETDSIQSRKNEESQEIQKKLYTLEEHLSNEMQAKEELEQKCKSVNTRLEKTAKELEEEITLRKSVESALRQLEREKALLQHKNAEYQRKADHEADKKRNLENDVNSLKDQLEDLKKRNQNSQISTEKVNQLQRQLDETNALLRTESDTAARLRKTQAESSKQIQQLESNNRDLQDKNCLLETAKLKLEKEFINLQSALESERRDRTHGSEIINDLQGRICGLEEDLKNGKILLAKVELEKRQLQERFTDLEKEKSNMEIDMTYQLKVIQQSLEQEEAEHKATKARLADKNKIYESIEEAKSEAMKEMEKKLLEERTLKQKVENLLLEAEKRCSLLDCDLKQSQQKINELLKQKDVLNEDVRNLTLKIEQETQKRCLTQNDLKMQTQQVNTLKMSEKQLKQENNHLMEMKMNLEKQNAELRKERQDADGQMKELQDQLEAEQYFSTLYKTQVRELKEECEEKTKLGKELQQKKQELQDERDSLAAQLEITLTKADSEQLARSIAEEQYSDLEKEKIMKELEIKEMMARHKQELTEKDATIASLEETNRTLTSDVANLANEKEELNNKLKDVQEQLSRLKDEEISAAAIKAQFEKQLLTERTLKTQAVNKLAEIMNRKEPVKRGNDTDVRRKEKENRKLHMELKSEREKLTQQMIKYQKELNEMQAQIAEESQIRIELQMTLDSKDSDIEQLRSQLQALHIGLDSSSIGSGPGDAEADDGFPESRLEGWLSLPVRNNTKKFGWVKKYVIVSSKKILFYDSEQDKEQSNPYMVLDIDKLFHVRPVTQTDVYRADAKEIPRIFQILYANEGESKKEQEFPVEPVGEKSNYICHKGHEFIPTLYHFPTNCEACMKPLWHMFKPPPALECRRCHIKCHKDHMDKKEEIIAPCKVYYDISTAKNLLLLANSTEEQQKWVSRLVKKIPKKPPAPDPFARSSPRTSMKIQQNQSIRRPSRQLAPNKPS
Rho kinase 1 (ROCK-I), sequence (Q13464 whole entry): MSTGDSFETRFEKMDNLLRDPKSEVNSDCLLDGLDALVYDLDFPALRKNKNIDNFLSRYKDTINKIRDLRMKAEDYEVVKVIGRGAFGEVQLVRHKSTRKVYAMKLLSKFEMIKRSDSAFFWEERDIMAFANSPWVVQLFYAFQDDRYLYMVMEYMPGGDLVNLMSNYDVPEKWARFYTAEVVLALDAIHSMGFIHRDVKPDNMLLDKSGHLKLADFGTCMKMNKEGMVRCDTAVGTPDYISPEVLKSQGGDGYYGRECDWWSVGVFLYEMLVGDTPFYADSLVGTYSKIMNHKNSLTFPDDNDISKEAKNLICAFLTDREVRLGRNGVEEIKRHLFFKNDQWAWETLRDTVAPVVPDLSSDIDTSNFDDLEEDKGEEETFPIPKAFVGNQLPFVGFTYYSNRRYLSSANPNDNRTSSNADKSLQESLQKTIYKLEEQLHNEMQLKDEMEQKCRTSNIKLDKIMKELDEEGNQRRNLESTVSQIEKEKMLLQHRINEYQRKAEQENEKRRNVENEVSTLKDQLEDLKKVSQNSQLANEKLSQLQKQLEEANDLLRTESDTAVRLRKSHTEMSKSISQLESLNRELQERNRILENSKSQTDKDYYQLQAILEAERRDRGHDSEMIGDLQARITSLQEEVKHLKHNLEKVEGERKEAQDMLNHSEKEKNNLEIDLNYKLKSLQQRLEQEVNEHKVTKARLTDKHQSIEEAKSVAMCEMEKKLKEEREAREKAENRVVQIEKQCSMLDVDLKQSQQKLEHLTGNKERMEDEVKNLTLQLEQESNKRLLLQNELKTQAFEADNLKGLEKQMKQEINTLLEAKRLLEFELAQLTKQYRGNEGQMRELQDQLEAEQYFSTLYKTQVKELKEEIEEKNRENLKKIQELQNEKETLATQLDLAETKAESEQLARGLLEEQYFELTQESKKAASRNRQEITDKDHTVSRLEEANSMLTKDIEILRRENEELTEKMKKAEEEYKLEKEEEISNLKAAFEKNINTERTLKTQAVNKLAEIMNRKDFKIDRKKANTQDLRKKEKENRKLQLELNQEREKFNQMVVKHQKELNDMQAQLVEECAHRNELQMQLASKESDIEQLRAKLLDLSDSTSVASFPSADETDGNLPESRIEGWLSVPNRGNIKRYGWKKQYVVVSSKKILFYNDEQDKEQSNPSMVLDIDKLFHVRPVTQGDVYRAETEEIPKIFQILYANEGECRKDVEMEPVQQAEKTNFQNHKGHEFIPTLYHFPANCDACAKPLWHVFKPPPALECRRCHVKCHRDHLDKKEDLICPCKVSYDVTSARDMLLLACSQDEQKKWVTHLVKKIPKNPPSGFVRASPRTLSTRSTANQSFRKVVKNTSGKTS

As to `CN(CC1CCCCC1)C(=O)[C@@H](N)Cc1ccc(Oc2ccnc3[nH]ccc23)cc1` [Example 92, (S)-3-(4-((1H-pyrrolo[2,3-b]pyridin-4-yl)oxy)phenyl)-2-amino-N-(cyclohexylmethyl)-N-methylpropanamide], the pKi at Rho kinase 1 (ROCK-I) and on Rho kinase 2 (ROCK-II) was 7.52 to 8.52 throughout.
As to `Cc1c[nH]c2nccc(Oc3ccc(CC(N)C(=O)NCCc4ccccc4)cc3F)c12` (stereo not shown) [Example 76, 2-amino-3-(3-fluoro-4-((3-methyl-1H-pyrrolo[2,3-b]pyridin-4-yl)oxy)phenyl)-N-phenethylpropanamide], the pKi on Rho kinase 1 (ROCK-I) and at Rho kinase 2 (ROCK-II) was more than 8.52 each time.
On to `CN(C)CCNC(=O)[C@@H](N)Cc1ccc(Oc2ccnc3[nH]ccc23)cc1` [Example 95, (S)-3-(4-((1H-pyrrolo[2,3-b]pyridin-4-yl)oxy)phenyl)-2-amino-N-(2-(dimethylamino)ethyl)propanamide], for which the pKi on Rho kinase 1 (ROCK-I) and on Rho kinase 2 (ROCK-II) was less than 7.52 throughout.
As for `Cc1c[nH]c2nccc(Oc3ccc(C[C@H](N)C(=O)NCc4ccccc4)cc3)c12` [Example 135, (S)-2-amino-N-benzyl-3-(4-((3-methyl-1H-pyrrolo[2,3-b]pyridin-4-yl)oxy)phenyl)propanamide], the pKi on Rho kinase 1 (ROCK-I) and at Rho kinase 2 (ROCK-II) was more than 8.52 throughout.
`N[C@@H](Cc1ccc(Oc2ccnc3[nH]ccc23)c(F)c1)C(=O)NC1CCCCC1` [Example 146, (S)-3-(4-((1H-pyrrolo[2,3-b]pyridin-4-yl)oxy)-3-fluorophenyl)-2-amino-N-cyclohexylpropanamide]: the pKi on Rho kinase 1 (ROCK-I) and on Rho kinase 2 (ROCK-II) was more than 8.52 in each case.
